Molecules are shown by their SMILES.

The subject of this test is HEK293 cells. In words: Preliminary screening as mRNA vectors, EGFP mRNA transfection of HEK293 cells. In kind it is cell-based. The following applies: EGFP mRNA 50 ng per well, 96-well plates; percentage of GFP fluorescent cells relative to total number of cells (Hoechst). The procedure: Cell line: HEK293 cells (ATCC CRL-1573™)
Medium: DMEM supplemented with 10% fetal bovine serum (Invitrogen)
Screening: cell transfection on 96-well plates
Detection (readout): percentage of the number of GFP fluorescent cells relative to the total number of cells (the total number of cells was determined using nucleus dye Hoechst). Lipofectamine2000 (Invitrogen) was used as the positive control.
Method: the experimental method was basically the same with Example 4, and the mass of EGFP mRNA (TriLink) for transfection was 50 ng per well.

`CCCCCCCCCCCCCCCCCCSc1nc(NCCCCCCCCCCCCCCC)nc(NCCN(C)C)n1` [Compound D1S18N15]: the “Absolute mRNA transfection efficiency in HEK293 cells” value (“Absolute mRNA transfection efficiency” below) was found to be 0.5%. The figure for `CCCCCCCCCCCCCCCCCCSc1nc(NCCCCCCCCCCCCCCCC)nc(NCCN(C)C)n1` [Compound D1S18N16] is 0.1%; for `CCCCCCCCCCCCCCCCCCNc1nc(NCCN(C)C)nc(SCCCCCCCCCCCCCCCCCC)n1` [Compound D1S18N18] it is 0.0%. The same measure for `CCCCCCNc1nc(NCCN2CCOCC2)nc(SCCCCCC)n1` [Compound D2S6N6]: 0.4%; for `CCCCCCCNc1nc(NCCN2CCOCC2)nc(SCCCCCC)n1` [Compound D2S6N7]: 2.7%; for `CCCCCCCCNc1nc(NCCN2CCOCC2)nc(SCCCCCC)n1` [Compound D2S6N8]: 0.0%.

Take `CCCCCCCCCNc1nc(NCCN2CCOCC2)nc(SCCCCCC)n1` [Compound D2S6N9]: the “Absolute mRNA transfection efficiency” value is 0.8%. Regarding `CCCCCCCCCCCNc1nc(NCCN2CCOCC2)nc(SCCCCCC)n1` [Compound D2S6N11], the “Absolute mRNA transfection efficiency” value is given as 0.8%. The same measure for `CCCCCCCCCCCCNc1nc(NCCN2CCOCC2)nc(SCCCCCC)n1` [Compound D2S6N12]: 0.8%; for `CCCCCCCCCCCCCNc1nc(NCCN2CCOCC2)nc(SCCCCCC)n1` [Compound D2S6N13]: 0.2%; for `CCCCCCCCCCCCCCCNc1nc(NCCN2CCOCC2)nc(SCCCCCC)n1` [Compound D2S6N15]: 1.2%. The same measure for `CCCCCCCCCCCCCCCCNc1nc(NCCN2CCOCC2)nc(SCCCCCC)n1` [Compound D2S6N16]: 2.2%; for `CCCCCCCCCCCCCCCCCCNc1nc(NCCN2CCOCC2)nc(SCCCCCC)n1` [Compound D2S6N18]: 4.5%; for `CCCCCCSc1nc(NCCN2CCOCC2)nc(SCCCCCC)n1` [Compound D2S6S6]: 2.2%.

In the case of `CCCCCCCSc1nc(NCCN2CCOCC2)nc(SCCCCCC)n1` [Compound D2S6S7], the “Absolute mRNA transfection efficiency” value worked out at 0.6%. The figure for `CCCCCCCCSc1nc(NCCN2CCOCC2)nc(SCCCCCC)n1` [Compound D2S6S8] is 5.0%; for `CCCCCCCCCSc1nc(NCCN2CCOCC2)nc(SCCCCCC)n1` [Compound D2S6S9] it is 6.3%; for `CCCCCCCCCCSc1nc(NCCN2CCOCC2)nc(SCCCCCC)n1` [Compound D2S6S10] it is 4.6%. For the compound `CCCCCCCCCCCSc1nc(NCCN2CCOCC2)nc(SCCCCCC)n1` [Compound D2S6S11], the “Absolute mRNA transfection efficiency” value was determined as 7.4%. Take `CCCCCCCCCCCCSc1nc(NCCN2CCOCC2)nc(SCCCCCC)n1` [Compound D2S6S12]: the “Absolute mRNA transfection efficiency” value came out at 1.5%. The same measure for `CCCCCCCCCCCCCCSc1nc(NCCN2CCOCC2)nc(SCCCCCC)n1` [Compound D2S6S14]: 6.6%; for `CCCCCCCCCCCCCCCSc1nc(NCCN2CCOCC2)nc(SCCCCCC)n1` [Compound D2S6S15]: 6.9%.

As to `CCCCCCCCCCCCCCCCSc1nc(NCCN2CCOCC2)nc(SCCCCCC)n1` [Compound D2S6S16], the “Absolute mRNA transfection efficiency” value amounted to 16.0%. The same measure for `CCCCCCCCCCCCCCCCCCSc1nc(NCCN2CCOCC2)nc(SCCCCCC)n1` [Compound D2S6S18]: 12.1%; for `CCCCCCCSc1nc(NCCCCCC)nc(NCCN2CCOCC2)n1` [Compound D2S7N6]: 1.2%; for `CCCCCCCNc1nc(NCCN2CCOCC2)nc(SCCCCCCC)n1` [Compound D2S7N7]: 1.1%. On to `CCCCCCCCNc1nc(NCCN2CCOCC2)nc(SCCCCCCC)n1` [Compound D2S7N8], for which the “Absolute mRNA transfection efficiency” value came to 1.0%. The figure for `CCCCCCCCCNc1nc(NCCN2CCOCC2)nc(SCCCCCCC)n1` [Compound D2S7N9] is 8.7%.

Turning to `CCCCCCCCCCCNc1nc(NCCN2CCOCC2)nc(SCCCCCCC)n1` [Compound D2S7N11], the “Absolute mRNA transfection efficiency” value came to 16.0%. As for `CCCCCCCCCCCCNc1nc(NCCN2CCOCC2)nc(SCCCCCCC)n1` [Compound D2S7N12], the “Absolute mRNA transfection efficiency” value came out at 3.0%.

For the compound `CCCCCCCCCCCCCNc1nc(NCCN2CCOCC2)nc(SCCCCCCC)n1` [Compound D2S7N13], the “Absolute mRNA transfection efficiency” value is 6.2%. The same measure for `CCCCCCCCCCCCCCCNc1nc(NCCN2CCOCC2)nc(SCCCCCCC)n1` [Compound D2S7N15]: 3.1%; for `CCCCCCCCCCCCCCCCNc1nc(NCCN2CCOCC2)nc(SCCCCCCC)n1` [Compound D2S7N16]: 2.6%; for `CCCCCCCCCCCCCCCCCCNc1nc(NCCN2CCOCC2)nc(SCCCCCCC)n1` [Compound D2S7N18]: 5.2%.

Consider `CCCCCCCSc1nc(NCCN2CCOCC2)nc(SCCCCCCC)n1` [Compound D2S7S7], for which the “Absolute mRNA transfection efficiency” value amounted to 4.9%. Take `CCCCCCCCSc1nc(NCCN2CCOCC2)nc(SCCCCCCC)n1` [Compound D2S7S8]: the “Absolute mRNA transfection efficiency” value came out at 35.6%. The figure for `CCCCCCCCCSc1nc(NCCN2CCOCC2)nc(SCCCCCCC)n1` [Compound D2S7S9] is 37.7%; for `CCCCCCCCCCSc1nc(NCCN2CCOCC2)nc(SCCCCCCC)n1` [Compound D2S7S10] it is 32.4%; for `CCCCCCCCCCCSc1nc(NCCN2CCOCC2)nc(SCCCCCCC)n1` [Compound D2S7S11] it is 24.2%. The figure for `CCCCCCCCCCCCSc1nc(NCCN2CCOCC2)nc(SCCCCCCC)n1` [Compound D2S7S12] is 19.2%; for `CCCCCCCCCCCCCCSc1nc(NCCN2CCOCC2)nc(SCCCCCCC)n1` [Compound D2S7S14] it is 11.0%.

For the compound `CCCCCCCCCCCCCCCSc1nc(NCCN2CCOCC2)nc(SCCCCCCC)n1` [Compound D2S7S15], the “Absolute mRNA transfection efficiency” value amounted to 17.5%.

Regarding `CCCCCCCCCCCCCCCCSc1nc(NCCN2CCOCC2)nc(SCCCCCCC)n1` [Compound D2S7S16], the “Absolute mRNA transfection efficiency” value is 13.9%.

Take `CCCCCCCCCCCCCCCCCCSc1nc(NCCN2CCOCC2)nc(SCCCCCCC)n1` [Compound D2S7S18]: the “Absolute mRNA transfection efficiency” value is recorded as 5.1%. In the case of `CCCCCCCCSc1nc(NCCCCCC)nc(NCCN2CCOCC2)n1` [Compound D2S8N6], the “Absolute mRNA transfection efficiency” value came out at 0.7%. On to `CCCCCCCCSc1nc(NCCCCCCC)nc(NCCN2CCOCC2)n1` [Compound D2S8N7], for which the “Absolute mRNA transfection efficiency” value was determined as 0.9%. The figure for `CCCCCCCCNc1nc(NCCN2CCOCC2)nc(SCCCCCCCC)n1` [Compound D2S8N8] is 0.9%; for `CCCCCCCCCNc1nc(NCCN2CCOCC2)nc(SCCCCCCCC)n1` [Compound D2S8N9] it is 8.3%. The same measure for `CCCCCCCCCCCNc1nc(NCCN2CCOCC2)nc(SCCCCCCCC)n1` [Compound D2S8N11]: 8.1%; for `CCCCCCCCCCCCNc1nc(NCCN2CCOCC2)nc(SCCCCCCCC)n1` [Compound D2S8N12]: 7.0%. The same measure for `CCCCCCCCCCCCCNc1nc(NCCN2CCOCC2)nc(SCCCCCCCC)n1` [Compound D2S8N13]: 7.5%; for `CCCCCCCCCCCCCCCNc1nc(NCCN2CCOCC2)nc(SCCCCCCCC)n1` [Compound D2S8N15]: 5.5%. On to `CCCCCCCCCCCCCCCCNc1nc(NCCN2CCOCC2)nc(SCCCCCCCC)n1` [Compound D2S8N16], for which the “Absolute mRNA transfection efficiency” value was 3.4%. The same measure for `CCCCCCCCCCCCCCCCCCNc1nc(NCCN2CCOCC2)nc(SCCCCCCCC)n1` [Compound D2S8N18]: 3.7%; for `CCCCCCCCSc1nc(NCCN2CCOCC2)nc(SCCCCCCCC)n1` [Compound D2S8S8]: 54.5%. Turning to `CCCCCCCCCSc1nc(NCCN2CCOCC2)nc(SCCCCCCCC)n1` [Compound D2S8S9], the “Absolute mRNA transfection efficiency” value was found to be 84.9%. The figure for `CCCCCCCCCCSc1nc(NCCN2CCOCC2)nc(SCCCCCCCC)n1` [Compound D2S8S10] is 38.8%; for `CCCCCCCCCCCSc1nc(NCCN2CCOCC2)nc(SCCCCCCCC)n1` [Compound D2S8S11] it is 43.3%.

In the case of `CCCCCCCCCCCCSc1nc(NCCN2CCOCC2)nc(SCCCCCCCC)n1` [Compound D2S8S12], the “Absolute mRNA transfection efficiency” value is 1.1%. In the case of `CCCCCCCCCSc1nc(NCCCCCC)nc(NCCN2CCOCC2)n1` [Compound D2S9N6], the “Absolute mRNA transfection efficiency” value was 0.5%. The figure for `CCCCCCCCCSc1nc(NCCCCCCC)nc(NCCN2CCOCC2)n1` [Compound D2S9N7] is 4.2%; for `CCCCCCCCCSc1nc(NCCCCCCCC)nc(NCCN2CCOCC2)n1` [Compound D2S9N8] it is 22.6%; for `CCCCCCCCCNc1nc(NCCN2CCOCC2)nc(SCCCCCCCCC)n1` [Compound D2S9N9] it is 38.5%.

Values taken from US20230123334A1, “AMINO LIPID COMPOUND, PREPARATION METHOD THEREFOR, AND APPLICATION THEREOF” (SHENZHEN SHENXIN BIOTECHNOLOGY CO., LTD., priority 2020, published 2023).
